What was measured:
non-His-tagged CLIC1 = non-His-tagged CLIC1 (Homo sapiens, UniProt O00299); settings: 1 mM GSH fixed, 250 uM NADPH, 0.5 ug/mL GR, 10 uM enzyme, 5 mM potassium phosphate, 1 mM EDTA, pH 7, 37 C; imidazole-free storage buffer
non-His-tagged CLIC3 = target: T1, non-His-tagged CLIC3 (Homo sapiens, UniProt O95833); assay: HEDS assay coupled to glutathione reductase, NADPH consumption at […] nm; type: biochemical; settings: 1 mM GSH fixed, 250 uM NADPH, 0.5 ug/mL GR, 10 uM enzyme, 5 mM potassium phosphate, 1 mM EDTA, pH 7, 37 C; imidazole-free storage buffer
T1 construct: E. coli BL21(DE3); Ni-NTA and SEC; reduced soluble monomer
T1 sequence (O95833 whole entry): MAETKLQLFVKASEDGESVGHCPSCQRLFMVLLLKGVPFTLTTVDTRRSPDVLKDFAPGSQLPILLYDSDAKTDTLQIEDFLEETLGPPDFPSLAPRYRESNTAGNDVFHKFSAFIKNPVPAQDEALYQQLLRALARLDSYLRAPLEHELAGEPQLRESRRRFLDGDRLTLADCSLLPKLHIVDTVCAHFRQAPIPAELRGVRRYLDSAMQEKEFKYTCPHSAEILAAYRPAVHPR

With `OCCSSCCO` [HEDS] the Km (non-His-tagged CLIC1) was 2500 µM and the Km (non-His-tagged CLIC3) was 994 µM.
